Details: 1.0% DMSO, 24-hour incubation at ambient temperature, maximum theoretical 100 μM; for pH 2 solubility: 0.1N HCl, first value of the cell; for pH 7 solubility: 1×PBS buffer (pH 7.4), second value of the cell

SMILES	pH 2 solubility	pH 7 solubility
CC(=O)N(c1nn(CC(F)(F)F)c2c(-c3ccc(C#CC(C)(C)S(C)(=O)=O)nc3[C@H](Cc3cc(F)cc(F)c3)NC(=O)Cn3nc(C(F)(F)F)c4c3C(F)(F)[C@@H]3C[C@H]43)ccc(Cl)c12)S(C)(=O)=O [Compound 1, N—((S)-1-(3-(4-chloro-3-(N-(methylsulfonyl)acetamido)-1-(2,2,2-trifluoroethyl)-1H-indazol-7-yl)-6-(3-methyl-3-(methylsulfonyl)but-1-yn-1-yl)pyridin-2-yl)-2-(3,5-difluorophenyl)ethyl)-2-((3bS,4aR)-5,5-difluoro-3-(trifluoromethyl)-3b,4,4a,5-tetrahydro-1H-cyclopropa[3,4]cyclopenta[1,2-c]pyrazol-1-yl)acetamide]	1/1 μM	1/1 μM
CC(C)(C#Cc1ccc(-c2ccc(Cl)c3c(N(C(=O)CN4CCOCC4)S(C)(=O)=O)nn(CC(F)(F)F)c23)c([C@H](Cc2cc(F)cc(F)c2)NC(=O)Cn2nc(C(F)(F)F)c3c2C(F)(F)[C@@H]2C[C@H]32)n1)S(C)(=O)=O [Compound 4, (N-(4-chloro-7-(2-((S)-1-(2-((3bS,4aR)-5,5-difluoro-3-(trifluoromethyl)-3b,4,4a,5-tetrahydro-1H-cyclopropa[3,4]cyclopenta[1,2-c]pyrazol-1-yl)acetamido)-2-(3,5-difluorophenyl)ethyl)-6-(3-methyl-3-(methylsulfonyl)but-1-yn-1-yl)pyridin-3-yl)-1-(2,2,2-trifluoroethyl)-1H-indazol-3-yl)-N-(methylsulfonyl)-2-morpholinoacetamide)]	33 μM	7 μM
CC(C)(C#Cc1ccc(-c2ccc(Cl)c3c(N(C(=O)CCN4CCOCC4)S(C)(=O)=O)nn(CC(F)(F)F)c23)c([C@H](Cc2cc(F)cc(F)c2)NC(=O)Cn2nc(C(F)(F)F)c3c2C(F)(F)[C@@H]2C[C@H]32)n1)S(C)(=O)=O [Compound 5, N-(4-chloro-7-(2-((S)-1-(2-((3bS,4aR)-5,5-difluoro-3-(trifluoromethyl)-3b,4,4a,5-tetrahydro-1H-cyclopropa [3,4]cyclopenta [1,2-c]pyrazol-1-yl)acetamido)-2-(3,5-difluorophenyl)ethyl)-6-(3-methyl-3-(methylsulfonyl)but-1-yn-1-yl)pyridin-3-yl)-1-(2,2,2-trifluoroethyl)-1H-indazol-3-yl)-N-(methylsulfonyl)-3-morpholinopropanamide]	39 μM	9 μM
CN1CCN(CC(=O)N(c2nn(CC(F)(F)F)c3c(-c4ccc(C#CC(C)(C)S(C)(=O)=O)nc4[C@H](Cc4cc(F)cc(F)c4)NC(=O)Cn4nc(C(F)(F)F)c5c4C(F)(F)[C@@H]4C[C@H]54)ccc(Cl)c23)S(C)(=O)=O)CC1 [Compound 6, (N-(4-chloro-7-(2-((S)-1-(2-((3bS,4aR)-5,5-difluoro-3-(trifluoromethyl)-3b,4,4a,5-tetrahydro-1H-cyclopropa[3,4]cyclopenta[1,2-c]pyrazol-1-yl)acetamido)-2-(3,5-difluorophenyl)ethyl)-6-(3-methyl-3-(methylsulfonyl)but-1-yn-1-yl)pyridin-3-yl)-1-(2,2,2-trifluoroethyl)-1H-indazol-3-yl)-2-(4-methylpiperazin-1-yl)-N-(methylsulfonyl)acetamide)]	50 μM	3 μM
CC(C)(C#Cc1ccc(-c2ccc(Cl)c3c(N(C(=O)CN4CCNCC4)S(C)(=O)=O)nn(CC(F)(F)F)c23)c([C@H](Cc2cc(F)cc(F)c2)NC(=O)Cn2nc(C(F)(F)F)c3c2C(F)(F)[C@@H]2C[C@H]32)n1)S(C)(=O)=O [Compound 7, (N-(4-chloro-7-(2-((S)-1-(2-((3bS,4aR)-5,5-difluoro-3-(trifluoromethyl)-3b,4,4a,5-tetrahydro-1H-cyclopropa[3,4]cyclopenta[1,2-c]pyrazol-1-yl)acetamido)-2-(3,5-difluorophenyl)ethyl)-6-(3-methyl-3-(methylsulfonyl)but-1-yn-1-yl)pyridin-3-yl)-1-(2,2,2-trifluoroethyl)-1H-indazol-3-yl)-N-(methylsulfonyl)-2-(piperazin-1-yl)acetamide)]	65 μM	7 μM
CC(C)(C#Cc1ccc(-c2ccc(Cl)c3c(N(C(=O)CN4CCN(C(=N)N)CC4)S(C)(=O)=O)nn(CC(F)(F)F)c23)c([C@H](Cc2cc(F)cc(F)c2)NC(=O)Cn2nc(C(F)(F)F)c3c2C(F)(F)[C@@H]2C[C@H]32)n1)S(C)(=O)=O [Compound 8, 2-(4-carbamimidoylpiperazin-1-yl)-N-(4-chloro-7-(2-((S)-1-(2-((3bS,4aR)-5,5-difluoro-3-(trifluoromethyl)-3b,4,4a,5-tetrahydro-1H-cyclopropa[3,4]cyclopenta[1,2-c]pyrazol-1-yl)acetamido)-2-(3,5-difluorophenyl)ethyl)-6-(3-methyl-3-(methylsulfonyl)but-1-yn-1-yl)pyridin-3-yl)-1-(2,2,2-trifluoroethyl)-1H-indazol-3-yl)-N-(methylsulfonyl)acetamide]	57 μM	6 μM
CC(C)(C#Cc1ccc(-c2ccc(Cl)c3c(N(C(=O)CCN4CCNCC4)S(C)(=O)=O)nn(CC(F)(F)F)c23)c([C@H](Cc2cc(F)cc(F)c2)NC(=O)Cn2nc(C(F)(F)F)c3c2C(F)(F)[C@@H]2C[C@H]32)n1)S(C)(=O)=O [Compound 9, N-(4-chloro-7-(2-((S)-1-(2-((3bS,4aR)-5,5-difluoro-3-(trifluoromethyl)-3b,4,4a,5-tetrahydro-1H-cyclopropa[3,4]cyclopenta[1,2-c]pyrazol-1-yl)acetamido)-2-(3,5-difluorophenyl)ethyl)-6-(3-methyl-3-(methylsulfonyl)but-1-yn-1-yl)pyridin-3-yl)-1-(2,2,2-trifluoroethyl)-1H-indazol-3-yl)-N-(methylsulfonyl)-3-(piperazin-1-yl)propanamide]	2 μM	21 μM
CC(C)(C#Cc1ccc(-c2ccc(Cl)c3c(N(C(=O)C(N)=O)S(C)(=O)=O)nn(CC(F)(F)F)c23)c([C@H](Cc2cc(F)cc(F)c2)NC(=O)Cn2nc(C(F)(F)F)c3c2C(F)(F)[C@@H]2C[C@H]32)n1)S(C)(=O)=O [Compound 10, N1-(4-chloro-7-(2-((S)-1-(2-((3bS,4aR)-5,5-difluoro-3-(trifluoromethyl)-3b,4,4a,5-tetrahydro-1H-cyclopropa[3,4]cyclopenta[1,2-c]pyrazol-1-yl)acetamido)-2-(3,5-difluorophenyl)ethyl)-6-(3-methyl-3-(methylsulfonyl)but-1-yn-1-yl)pyridin-3-yl)-1-(2,2,2-trifluoroethyl)-1H-indazol-3-yl)-N1-(methylsulfonyl)oxalamide]	2/2 μM	2/2 μM
CC(C)(C#Cc1ccc(-c2ccc(Cl)c3c(N(C(=O)C(=O)NCCP(=O)(O)O)S(C)(=O)=O)nn(CC(F)(F)F)c23)c([C@H](Cc2cc(F)cc(F)c2)NC(=O)Cn2nc(C(F)(F)F)c3c2C(F)(F)[C@@H]2C[C@H]32)n1)S(C)(=O)=O [Compound 11, (2-(2-(N-(4-chloro-7-(2-((S)-1-(2-((3bS,4aR)-5,5-difluoro-3-(trifluoromethyl)-3b,4,4a,5-tetrahydro-1H-cyclopropa[3,4]cyclopenta[1,2-c]pyrazol-1-yl)acetamido)-2-(3,5-difluorophenyl)ethyl)-6-(3-methyl-3-(methylsulfonyl)but-1-yn-1-yl)pyridin-3-yl)-1-(2,2,2-trifluoroethyl)-1H-indazol-3-yl)methylsulfonamido)-2-oxoacetamido)ethyl)phosphonic acid]	5 μM	36 μM

— patent US12404262B2 (priority 2021, dated 2025)
